From patent US20210380606A1, “5-AZAINDAZOLE DERIVATIVES AS ADENOSINE RECEPTOR ANTAGONISTS” (Merck Patent GmbH, priority 2018, published 2021)

What was measured:
Assay type in all cases: cell-based
[1] = test system: mouse Pan T cells; assay: Mouse T cell IL-2 rescue from NECA (CD3/CD28-activated Pan T cells, ELISA); conditions: 24 h
Excerpt: Adenosine (Ado) in tumor microenvironment can inhibit T cell activity by signaling through A2A receptors and suppress cytokine secretion by T cells. […] Potential A2A antagonists or A2A/A2B dual antagonists can rescue T cells from this inhibition. Herein, we describe the in vitro system we established using Pan T cells from mouse spleens to screen potential A2A antagonists or A2A/A2B dual antagonists for their activity. The method described involves the use of CD3/CD28 pre-coated beads to stimulate Pan T cells purified from mouse splenocytes, combined with the addition of A2A agonist along with potential A2A or A2A/A2B dual antagonists to evaluate potentiation of T cell cytokine production.
Briefly, mouse Pan T cells are purified from spleens of BALB/c mice using Pan T cell isolation kit Mouse II (MACS Miltenyi biotech Cat #Order no. 130-095-130) according to manufacturer's protocol. The purified T cells are seeded in Nunc™ 96-Well Polystyrene Round Bottom Microwell Plates in RPMI medium with 10% heat inactivated fetal bovine serum. The cells are rested at 37° C. for 1 h before activating with CD3/CD28 pre-coated beads (Dynabeads™ Mouse T-Activator CD3/CD28; Cat #11456D). After 30 min the cells are treated with varying doses of test antagonist(s). […] After 24 h incubation IL-2 levels in the supernatants are measured by ELISAs according to manufacturer's protocol (R&D systems Cat #DY402 (IL-2)). Once the concentrations are calculated, the difference of cytokine concentration of DMSO control and agonist alone control is calculated and the percentage of rescue by each concentration of antagonist is calculated by using Microsoft Excel. These percentages of cytokine rescue in a dose dependent manner of antagonist is plotted in GraphPad Prism software and IC50 is calculated.

[2] = target: T1, human A2B receptors (Homo sapiens, UniProt P29275); assay: Functional human A2B receptor activity, recombinant HEK293 cells, cAMP (HTRF); conditions: read-out: A2B (Category)
T1 construct: expressed in transfected cells; host or cells: HEK293
T1 sequence (P29275 1-332): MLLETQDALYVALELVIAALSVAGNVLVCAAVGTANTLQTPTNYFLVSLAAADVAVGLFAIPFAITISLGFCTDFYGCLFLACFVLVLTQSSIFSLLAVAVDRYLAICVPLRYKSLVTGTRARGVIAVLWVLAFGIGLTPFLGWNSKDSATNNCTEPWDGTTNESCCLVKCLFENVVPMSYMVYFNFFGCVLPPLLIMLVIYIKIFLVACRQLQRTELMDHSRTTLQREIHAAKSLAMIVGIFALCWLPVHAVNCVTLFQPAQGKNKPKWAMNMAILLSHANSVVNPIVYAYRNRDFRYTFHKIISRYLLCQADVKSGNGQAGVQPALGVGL
Method in brief: (§1)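 15 min incubation → HTRF cAMP reagents added → cellular cAMP read on plate reader. cAMP serves as adenosine receptor second messenger.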

[3] = test system: Human T cell; assay: Human T cell IL-2; conditions: human T cells
[4] = target: T2, human A2A receptors (Homo sapiens, UniProt P29274); assay: Functional human A2A receptor activity, recombinant HEK293 cells, cAMP (HTRF); conditions: read-out: A2A (Category)
T2 construct: expressed in transfected cells; host or cells: HEK293
T2 sequence (P29274 whole entry): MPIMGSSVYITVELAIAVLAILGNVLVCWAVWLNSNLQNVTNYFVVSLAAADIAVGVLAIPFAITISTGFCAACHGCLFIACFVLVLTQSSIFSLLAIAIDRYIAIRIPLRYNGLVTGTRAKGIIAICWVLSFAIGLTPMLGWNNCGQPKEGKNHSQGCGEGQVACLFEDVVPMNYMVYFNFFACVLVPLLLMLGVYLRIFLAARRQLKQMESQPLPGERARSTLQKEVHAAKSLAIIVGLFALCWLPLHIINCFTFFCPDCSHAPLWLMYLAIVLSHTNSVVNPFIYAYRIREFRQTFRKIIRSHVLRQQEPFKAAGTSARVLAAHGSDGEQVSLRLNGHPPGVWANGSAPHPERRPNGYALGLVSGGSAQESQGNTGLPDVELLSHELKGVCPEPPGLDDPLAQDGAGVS
Method in brief: as §1

[5] = target: T3, Gs-coupled human A2A receptor (Homo sapiens, UniProt P29274); assay: Human T cell assay, endogenous A2A receptor, cAMP (HTRF)
T3 construct: The endogenous functional activity of the Gs-coupled human A2A receptor was measured in T cells; endogenous in cells; host or cells: human pan T cells isolated from PBMC of fresh whole blood
T3 sequence (P29274 whole entry): as above
Description: The endogenous functional activity of the Gs-coupled human A2A receptor was measured in T cells, where this receptor is highly expressed. Determination of receptor activity was done by quantification of cAMP, which is a second messenger for adenosine receptors.
In short, human pan T cells were isolated from human PBMC (MACS Pan T Cell Isolation Kit, Miltenyi Biotec) that have been derived from fresh whole blood. The T cells were seeded in 384-well microtiter plates and treated with test compounds. […] Finally, HTRF reagents (cAMP Femto Kit, CisBio) were added to the wells, and after 1 h cellular cAMP levels were determined using the ENVISION (Perkin Elmer) plate reader.
The obtained raw data were normalized against the inhibitor control and the neutral control (DMSO) and the normalized data were fitted using Genedata Screener software.

IC50 [1] | IC50 [2] | IC50 [3] | IC50 [4] | IC50 [5] | Structure (SMILES)
< 1000 nM | < 100 nM | < 100 nM | < 100 nM | < 100 nM | O=C(c1cc2c(cn1)c(-c1coc3ccc(F)cc13)nn2CC(F)(F)F)N1CCCOCC1 [Compound 109, [3-(5-fluorobenzofuran-3-yl)-1-(2,2,2-trifluoroethyl)pyrazolo[4,3-c]pyridin-6-yl]-(1,4-oxazepan-4-yl)methanone]
< 1000 nM | < 100 nM | < 100 nM | < 100 nM | < 100 nM | O=C(c1cc2c(cn1)c(-c1coc3ccccc13)nn2CC(F)(F)F)N1CCOCC(O)C1 (stereo not drawn) [Compound 224, [3-(benzofuran-3-yl)-1-(2,2,2-trifluoroethyl)pyrazolo[4,3-c]pyridin-6-yl]-(6-hydroxy-1,4-oxazepan-4-yl)methanone]

Structure (SMILES) | IC50 [1] | IC50 [2] | IC50 [3] | IC50 [4] | IC50 [5]
O=C(c1cc2c(cn1)c(-c1cnc3c(F)cccn13)nn2CC(F)(F)F)N1[C@@H]2CC[C@H]1C[C@@H](O)C2 [Compound 85, [3-(8-fluoroimidazo[1,2-a]pyridin-3-yl)-1-(2,2,2-trifluoroethyl)pyrazolo[4,3-c]pyridin-6-yl]-(3-endo-hydroxy-8-azabicyclo[3.2.1]octan-8-yl)methanone] | < 100 nM | < 100 nM | < 1000 nM | < 100 nM | < 100 nM
